In patent publication US20080145858A1, “DETECTION AND IDENTIFICATION OF TOXICANTS BY MEASUREMENT OF GENE […]” (priority 2003, published 2008):
Marks after values point to notes of the source that are not given here.

Test system: Xenopus laevis neurulation stage embryos (stage 15)
Experiment: Xenopus cDNA microarray, differential gene expression after PMA treatment during neurulation (Group II)
Assay type: in vivo
Settings: for Ratio of Medians (Cy5/Cy3) Mean / Ratio of Medians (Cy5/Cy3) Second Spot / Cy3/Cy5 by Landmarks (0.25) / Cy3/Cy5 by all Data Points (0.469) / Normalized by Landmarks (0.25) / Normalized by all Data Points (0.469) / Ratio of Medians (Cy5/Cy3) First Spot: PMA, stage 15; for % increase of mRNA expression by Microarray analysis (NF by all data point): Stage 15
Text: Specifically, the method and screen of the present invention function as follows. EST clones produced from Xenopus laevis unfertilized eggs were used in the present study with ˜1,200 EST clones from a 18,500 EST clone set selected for production of a Xenopus cDNA microarray. The Xenopus microarray was used to measure the effect of chemical treatment on Xenopus embryo gene regulation. The chemical treatment was a phorbol ester, PMA. Xenopus eggs were obtained from females induced for ovulation and fertilized in vitro. Control Xenopus laevis embryos were allowed to develop to stage 8 blastula or stage 15 neurula. Treated embryos were exposed to PMA during cleavage stage or during neurulation with end points of blastula (stage 8) or neurula (stage 15). Specifically, PMA 100 ng/ml was added to the incubation media during cleavage stages for evaluation in stage 8 embryo or PMA was added during neural induction for evaluation in stage 15 embryos. RNA extracted from the embryos was used to generate fluorescent cDNA probes for Xenopus microarray analyses to measure differential gene expression with and without the phorbol ester treatment. Analysis was performed using paired RNA samples to compare PMA-treated and untreated embryos: Group I measured the effects of PMA-treatment during the cleavage stage in stage 8 embryos and Group II measured the effects of PMA-treatment during neurulation in stage 15 embryos. Group III measured the change in gene expression between stage 8 and stage 15 embryos.
cDNA fragments were obtained by PCR replication of Xenopus laevis unfertilized egg cDNA inserts, purified, quantitated and loaded onto glass chips by robotics. In addition to the selected ˜1,200 genes, 64 lambda Q gene, an internal control cDNA (Genomic Solutions, Inc., Ann Arbor, Mich.) was loaded on the chip. The insert DNA from ˜1,200 clones were PCR amplified using forward and reverse primers (GF.200 primers, Research Genetics, Huntsville, Ala.). A second PCR was carried out using 1 μl of the primary PCR (20 μl) for template. Excess dNTPs, polymerase and other PCR artifacts were removed from the secondary PCR reactions using Millipore Multiscreen plates (Millipore Corporation, Bedford, Mass.) using the standard protocol. The purity of the PCR products was assessed by electrophoresis and documented using an Alphalmager 1000 Digital Imaging System (Alpha Innotech Corporation, San Leandro, Calif.). The DNA obtained by PCR was quantitated using PicoGreen (Molecular Probes, Eugene, Oreg.). The DNA was denatured and arrayed onto amino-silane coated microscope slides (CMT-GAPS coated slides, Corning, Corning, N.Y.) using a Flexys robotic workstation (Genomic Solutions Inc.). The ˜1,200 PCR products were arrayed in duplicate on each slide and cross-linked. Each gene chip contained duplicate cDNA samples.
Total RNA was prepared from embryos treated in three separate dishes per treatment group that were pooled. Total RNA was isolated from the frog embryos (1,200 embryos for each probe production) using TRIzol extraction (Gibco BRL, Grand Island, N.Y.) and Qiagen RNeasy kits (Qiagen, Valencia, Calif.). The ethanol precipitated RNA was resuspended in RNase-free water, quantitated with RiboGreen (Molecular Probes, Eugene, Oreg.). Total RNA was further purified using oligoTex mRNA maxi kit (Qiagen Co.) with the bound mRNA eluted with minimum volume of elution buffer and precipitated with ethanol. The recovery rate of mRNA by the ethanol precipitation method was ˜70%. Cy3- or Cy5-tagged probes were produced from an mRNA mixture (20 μl) of Xenopus mRNA (5 μg) and lambda Q gene mRNA (3.5 ng) reverse-transcribed with oligo(dT)18-22 primer and dNTPs and the reverse-transcribed cDNA was cross-linked with Cy3 or Cy5 as described in Clontech Atlas™ Glass Fluorescent Labeling kit manual (www.clontech.com). After hydrolysis of the RNA and purification of the probe (Centricon 50, Millipore, Bedford, Mass.), the cDNA in TE buffer was quantitated by absorbance at 260 nm. […]

CCCCCCCCCCCCCC(=O)O[C@@H]1[C@@H](C)[C@@]2(O)[C@@H](C=C(CO)C[C@]3(O)C(=O)C(C)=C[C@@H]23)[C@@H]2C(C)(C)[C@]12OC(C)=O [PMA, phorbol 12-myristate 12-acetate]
Ratio of Medians (Cy5/Cy3) Mean (PBX0139G06 mRNA): 1.06 ± 0.00 ^a
Ratio of Medians (Cy5/Cy3) Second Spot (PBX0139G06 mRNA): 1.06
Cy3/Cy5 by Landmarks (0.25) (PBX0140A10 mRNA): 4.20
Cy3/Cy5 by all Data Points (0.469) (PBX0140A10 mRNA): 2.24
Normalized by Landmarks (0.25) (PBX0140A10 mRNA): 0.238
Normalized by all Data Points (0.469) (PBX0140A10 mRNA): 0.446
Ratio of Medians (Cy5/Cy3) First Spot (PBX0140A10 mRNA): 0.89
Ratio of Medians (Cy5/Cy3) Mean (PBX0140A10 mRNA): 0.95 ± 0.06 ^a
Ratio of Medians (Cy5/Cy3) Second Spot (PBX0140A10 mRNA): 1.00
Cy3/Cy5 by Landmarks (0.25) (PBX0141B10 mRNA): 3.92
Cy3/Cy5 by all Data Points (0.469) (PBX0141B10 mRNA): 2.09
Normalized by Landmarks (0.25) (PBX0141B10 mRNA): 0.255
Normalized by all Data Points (0.469) (PBX0141B10 mRNA): 0.478
Ratio of Medians (Cy5/Cy3) First Spot (PBX0141B10 mRNA): 0.92
Ratio of Medians (Cy5/Cy3) Mean (PBX0141B10 mRNA): 1.02 ± 0.10 ^a
Ratio of Medians (Cy5/Cy3) Second Spot (PBX0141B10 mRNA): 1.12
Cy3/Cy5 by Landmarks (0.25) (PBX0141H05 mRNA): 10.8
Cy3/Cy5 by all Data Points (0.469) (PBX0141H05 mRNA): 5.76
Normalized by Landmarks (0.25) (PBX0141H05 mRNA): 0.093
Normalized by all Data Points (0.469) (PBX0141H05 mRNA): 0.174
Ratio of Medians (Cy5/Cy3) First Spot (PBX0141H05 mRNA): 0.73
Ratio of Medians (Cy5/Cy3) Mean (PBX0141H05 mRNA): 0.37 ± 0.36 ^a
Ratio of Medians (Cy5/Cy3) Second Spot (PBX0141H05 mRNA): 0.015
Normalized by Landmarks (0.25) (PBX 0141H12 mRNA): 1.40
Normalized by all Data Points (0.469) (PBX 0141H12 mRNA): 2.63
Ratio of Medians (Cy5/Cy3) First Spot (PBX 0141H12 mRNA): 7.46
Ratio of Medians (Cy5/Cy3) Mean (PBX 0141H12 mRNA): 5.61 ± 1.85 ^a
Ratio of Medians (Cy5/Cy3) Second Spot (PBX 0141H12 mRNA): 3.75
Normalized by Landmarks (0.25) (PBX 0143E06 mRNA): 1.60
Normalized by all Data Points (0.469) (PBX 0143E06 mRNA): 3.01
Ratio of Medians (Cy5/Cy3) First Spot (PBX 0143E06 mRNA): 6.04
Ratio of Medians (Cy5/Cy3) Mean (PBX 0143E06 mRNA): 6.41 ± 0.3 ^a
Ratio of Medians (Cy5/Cy3) Second Spot (PBX 0143E06 mRNA): 6.78
Normalized by Landmarks (0.25) (PBX 0143E11 mRNA): 1.41
Normalized by all Data Points (0.469) (PBX 0143E11 mRNA): 2.64
Ratio of Medians (Cy5/Cy3) First Spot (PBX 0143E11 mRNA): 4.62
Ratio of Medians (Cy5/Cy3) Mean (PBX 0143E11 mRNA): 5.64 ± 1.01 ^a
Ratio of Medians (Cy5/Cy3) Second Spot (PBX 0143E11 mRNA): 6.65
Cy3/Cy5 by Landmarks (0.25) (PBX0144A09 mRNA): 4.00
Cy3/Cy5 by all Data Points (0.469) (PBX0144A09 mRNA): 2.13
Normalized by Landmarks (0.25) (PBX0144A09 mRNA): 0.250
Normalized by all Data Points (0.469) (PBX0144A09 mRNA): 0.469
Ratio of Medians (Cy5/Cy3) First Spot (PBX0144A09 mRNA): 0.83
Ratio of Medians (Cy5/Cy3) Mean (PBX0144A09 mRNA): 1.00 ± 0.17 ^a
Ratio of Medians (Cy5/Cy3) Second Spot (PBX0144A09 mRNA): 1.16
Cy3/Cy5 by Landmarks (0.25) (PBX0145D04 mRNA): 4.35
Cy3/Cy5 by all Data Points (0.469) (PBX0145D04 mRNA): 2.32
Normalized by Landmarks (0.25) (PBX0145D04 mRNA): 0.230
Normalized by all Data Points (0.469) (PBX0145D04 mRNA): 0.431
Ratio of Medians (Cy5/Cy3) First Spot (PBX0145D04 mRNA): 0.9
Ratio of Medians (Cy5/Cy3) Mean (PBX0145D04 mRNA): 0.92 ± 0.02 ^a
Ratio of Medians (Cy5/Cy3) Second Spot (PBX0145D04 mRNA): 0.95
Cy3/Cy5 by Landmarks (0.25) (PBX0145D06 mRNA): 4.03
Cy3/Cy5 by all Data Points (0.469) (PBX0145D06 mRNA): 2.15
Normalized by Landmarks (0.25) (PBX0145D06 mRNA): 0.248
Normalized by all Data Points (0.469) (PBX0145D06 mRNA): 0.464
Ratio of Medians (Cy5/Cy3) First Spot (PBX0145D06 mRNA): 0.98
Ratio of Medians (Cy5/Cy3) Mean (PBX0145D06 mRNA): 0.99 ± 0.01 ^a
Ratio of Medians (Cy5/Cy3) Second Spot (PBX0145D06 mRNA): 1.00
% increase of mRNA expression by Microarray analysis (NF by all data point) (gene PBX0135A08): no change
% increase of mRNA expression by Microarray analysis (NF by all data point) (gene PBX013409): no change
